# Reference: patent publication US20080275035A1 (priority 2005, published 2008)
# System: not given
# Experiment: not given
row,SMILES,melting point [°C]
1,O=[N+]([O-])c1cn2c(n1)OC[C@@H](OCc1csc(-c3ccc(OC(F)(F)F)cc3)n1)C2,140 to 141
2,O=[N+]([O-])c1cn2c(n1)OC[C@@H](OCc1nc3ccc(C(F)(F)F)cc3[nH]1)C2,120 to 121
3,O=[N+]([O-])c1cn2c(n1)OC[C@@H](OCc1nc3ccc(OC(F)(F)F)cc3[nH]1)C2,99 to 100
4,O=C(CO[C@@H]1COc2nc([N+](=O)[O-])cn2C1)Nc1ccc(OC(F)(F)F)cc1,157 to 158
5,O=C(CO[C@@H]1COc2nc([N+](=O)[O-])cn2C1)NCc1ccc(OC(F)(F)F)cc1,110 to 111
6,O=C(CO[C@@H]1COc2nc([N+](=O)[O-])cn2C1)Nc1nc(-c2ccc(OC(F)(F)F)cc2)cs1,120 to 121
7,O=C(CO[C@@H]1COc2nc([N+](=O)[O-])cn2C1)N1CCN(c2ccc(OC(F)(F)F)cc2)CC1,77 to 79
8,O=C(CO[C@@H]1COc2nc([N+](=O)[O-])cn2C1)N1CCN(c2ccc(F)cc2)CC1,73 to 74
9,O=C(CO[C@@H]1COc2nc([N+](=O)[O-])cn2C1)N1CCN(c2ccc(C(F)(F)F)cn2)CC1,189 to 190
10,O=C(CO[C@@H]1COc2nc([N+](=O)[O-])cn2C1)N1CCC(c2nc3cc(OC(F)(F)F)ccc3[nH]2)CC1,131 to 132
11,O=[N+]([O-])c1cn2c(n1)OC[C@@H](OCc1ccc(-c3nc4cc(OC(F)(F)F)ccc4[nH]3)cc1)C2,98 to 99
12,O=[N+]([O-])c1cn2c(n1)OCC(OCc1ccc(-c3nc4cc(OC(F)(F)F)ccc4o3)cc1)C2 (stereo not drawn),187 to 188
13,O=[N+]([O-])c1cn2c(n1)OCC(OCc1ccc(OCc3ccc(F)cc3)cc1)C2 (stereo not drawn),150.2 to 150.9
14,O=C(CO[C@@H]1COc2nc([N+](=O)[O-])cn2C1)Nc1nc2ccc(OC(F)(F)F)cc2s1 (stereo in doubt),89 to 90

# System: Mycobacterium tuberculosis H37Rv (ATCC 27294)
# Experiment: microbe, parasite or virus in culture
# Format: cell-based
row,SMILES,MIC [µg/mL]
1,[H]/N=C(/N)N[C@H]1[C@H](O)[C@@H](O)[C@H](O[C@@H]2O[C@@H](C)[C@](O)(C=O)[C@H]2O[C@@H]2O[C@@H](CO)[C@H](O)[C@@H](O)[C@@H]2NC)[C@@H](N/C(N)=N\[H])[C@@H]1O [streptomycin],0.25
